Measurements taken from ChEMBL document CHEMBL1152605, “Novel 7H-pyrrolo[2,3-d]pyrimidine derivatives as potent and orally active STAT6 inhibitors” (Bioorg Med Chem, 2009).

Experiments:
CYP3A4 [1] = target: T1, CYP3A4 (Homo sapiens, UniProt P08684); test: Inhibition of CYP3A4 in human liver microsomes assessed as residual activity at 5 uM; format: ADME, Microsome; conditions: read-out: Activity
[2] = target: T2, Signal transducer and activator of transcription 6 (Homo sapiens, UniProt P42226); test: Inhibition of STAT6 in IL4-stimulated human FW4 reporter cells by luciferase assay
T2 sequence (P42226 whole entry): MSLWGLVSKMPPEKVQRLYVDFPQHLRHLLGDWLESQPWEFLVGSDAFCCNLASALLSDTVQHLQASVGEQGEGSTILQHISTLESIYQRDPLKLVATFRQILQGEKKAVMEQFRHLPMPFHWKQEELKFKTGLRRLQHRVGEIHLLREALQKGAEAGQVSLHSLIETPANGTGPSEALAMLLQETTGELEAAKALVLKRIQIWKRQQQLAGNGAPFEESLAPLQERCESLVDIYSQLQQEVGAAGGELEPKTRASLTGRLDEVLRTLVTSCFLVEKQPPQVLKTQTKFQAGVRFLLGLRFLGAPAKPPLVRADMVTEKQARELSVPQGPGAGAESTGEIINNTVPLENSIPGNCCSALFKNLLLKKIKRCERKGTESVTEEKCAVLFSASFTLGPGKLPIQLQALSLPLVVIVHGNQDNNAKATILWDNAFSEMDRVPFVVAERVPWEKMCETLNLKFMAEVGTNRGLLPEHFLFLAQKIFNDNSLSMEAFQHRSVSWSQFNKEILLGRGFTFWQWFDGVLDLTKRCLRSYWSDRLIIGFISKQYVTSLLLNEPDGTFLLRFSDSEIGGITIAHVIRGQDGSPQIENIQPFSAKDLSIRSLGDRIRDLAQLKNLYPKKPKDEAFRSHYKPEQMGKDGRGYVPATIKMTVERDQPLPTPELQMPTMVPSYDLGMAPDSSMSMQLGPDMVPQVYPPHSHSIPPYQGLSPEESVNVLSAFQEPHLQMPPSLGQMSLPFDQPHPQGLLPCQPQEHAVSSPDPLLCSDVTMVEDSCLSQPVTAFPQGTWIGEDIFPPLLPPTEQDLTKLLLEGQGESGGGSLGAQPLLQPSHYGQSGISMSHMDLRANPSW

CYP3A4 [3] = target: T1, CYP3A4; test: Inhibition of CYP3A4 in human liver microsomes assessed as residual activity at 5 uM after 30 mins; format: ADME, Microsome; conditions: read-out: Activity
T-cell = test: Inhibition of IL4 production in C57BL/6 mouse T cell after 16 hrs by T cell differentiation assay; format: functional, cell-based; conditions: C57BL/6, T-cell
Mus musculus = organism: Mus musculus; test: Antiasthmatic activity in OVA-induced pulmonary eosinophila BALB/c mouse model assessed as suppression of eosinophil infiltration in lung treated 30 mins before and 24, 48 hrs after OVA challenge; format: functional, organism-based

T1 sequence (P08684 whole entry): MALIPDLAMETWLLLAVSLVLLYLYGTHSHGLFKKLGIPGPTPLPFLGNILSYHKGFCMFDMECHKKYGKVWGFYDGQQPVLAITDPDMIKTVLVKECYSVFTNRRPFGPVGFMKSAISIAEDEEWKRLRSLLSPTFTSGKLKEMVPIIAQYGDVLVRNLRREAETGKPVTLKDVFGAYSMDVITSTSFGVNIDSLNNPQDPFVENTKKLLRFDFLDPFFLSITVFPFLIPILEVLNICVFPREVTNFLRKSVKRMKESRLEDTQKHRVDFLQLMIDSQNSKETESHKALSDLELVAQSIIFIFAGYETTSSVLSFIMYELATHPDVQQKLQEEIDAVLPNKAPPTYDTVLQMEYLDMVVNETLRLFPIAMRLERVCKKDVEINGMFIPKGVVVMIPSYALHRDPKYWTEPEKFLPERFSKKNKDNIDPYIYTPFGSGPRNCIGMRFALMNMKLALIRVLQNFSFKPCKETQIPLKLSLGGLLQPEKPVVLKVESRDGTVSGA

SMILES | activity at 5 µM (CYP3A4 [1]) | IC50 [2] | activity at 0.5 h, 5 µM (CYP3A4 [3]) | IC50 (T-cell) | Activity (Mus musculus)
NC(=O)c1cnc(Nc2ccc(N3CCOCC3)cc2)nc1NCc1c(F)ccc(F)c1F | 100% | 0.7 nM | 31% | – | –
c1ccc(CN2CCc3cnc(Nc4ccc(N5CCOCC5)cc4)nc32)cc1 | – | 8300 nM | – | – | –
Fc1ccc(Cn2ccc3cnc(Nc4ccc(N5CCOCC5)cc4)nc32)cc1 | 82% | 4100 nM | 43% | – | –
Fc1cccc(Cn2ccc3cnc(Nc4ccc(N5CCOCC5)cc4)nc32)c1 | 97% | 37 nM | 56% | – | –
Fc1ccccc1Cn1ccc2cnc(Nc3ccc(N4CCOCC4)cc3)nc21 | 78% | 220 nM | 32% | – | –
CN1CCN(c2ccc(Nc3ncc4ccn(Cc5cc(F)cc(F)c5)c4n3)cc2)CC1 | 90% | 3.2 nM | 88% | – | –
O=C(O)CN1CCN(c2ccc(Nc3ncc4ccn(Cc5cc(F)cc(F)c5)c4n3)cc2)CC1 | 100% | 26 nM | 98% | – | –
Fc1cc(F)cc(Cn2ccc3cnc(Nc4ccc(N5CCNCC5)cc4)nc32)c1 | 74% | 12 nM | 95% | – | –
Fc1cc(F)cc(Cn2ccc3cnc(Nc4ccc(N5CCOCC5)cc4)nc32)c1 | 80% | 120 nM | 37% | – | –
OCCN1CCN(c2ccc(Nc3ncc4ccn(Cc5cc(F)cc(F)c5)c4n3)cc2)CC1 | 86% | 5.6 nM | 86% | – | –
NC(=O)CN1CCN(c2ccc(Nc3ncc4ccn(Cc5cc(F)cc(F)c5)c4n3)cc2)CC1 | 104% | 1.9 nM | 85% | 2.4 nM | Dose-dependent effect
NC(=O)c1cnc(Nc2ccc(N3CCOCC3)cc2)nc1NCc1ccccc1 | – | 6.5 nM | – | – | –
NCCN1CCN(c2ccc(Nc3ncc4ccn(Cc5cc(F)cc(F)c5)c4n3)cc2)CC1 | 65% | 34 nM | 105% | – | –
c1ccc(Cn2ccc3cnc(Nc4ccc(N5CCOCC5)cc4)nc32)cc1 | 88% | 400 nM | 34% | – | –
CNC(=O)CN1CCN(c2ccc(Nc3ncc4ccn(Cc5cc(F)cc(F)c5)c4n3)cc2)CC1 | 85% | 4.7 nM | 77% | – | –
